Test results as given in ChEMBL document CHEMBL6074690, “Development and Characterization of a High-Affinity Selective Galectin-3 Mouse Tool Compound in Mouse Models of Cancer” (J Med Chem, 2024).

Tests used:
[1] = Apparent permeability across apical to basal side in human Caco-2 cells at 10 uM incubated for 90 mins by LC-MS/MS analysis; format: ADME, cell-based
[2] = Apparent permeability across basal to apical side in human Caco-2 cells at 10 uM incubated for 90 mins by LC-MS/MS analysis; format: ADME, cell-based
[3] = Lipophilicity, log D of compound in potassium phosphate buffer/octanol at pH 7.4 by shake flask method; format: physicochemical
[4] = Intrinsic clearance in human hepatocytes measured per million cells at 2 uM incubated for 15 to 120 mins by LC-MS/MS analysis; format: ADME, cell-based, Hepatocyte; details: time 15-120 min, read-out: CLH
[5] = Intrinsic clearance in mouse hepatocytes measured per million cells at 2 uM incubated for 15 to 120 mins by LC-MS/MS analysis; format: ADME, cell-based, Hepatocyte; details: time 15-120 min, read-out: CLH
[6] = Unbound drug level in C57BL/6 mouse at 30 mg/kg, po measured for 12 hrs; format: ADME, organism-based; details: in vivo

## OC[C@H]1O[C@@H](Sc2cncc(Br)c2)[C@H](O)[C@@H](n2cc(-c3cc(F)c(F)c(F)c3)nn2)[C@H]1O
[1]
  Papp A→B at […], 10 µM: […]
[2]
  Papp B→A at […], 10 µM: […]
[3]
  logD: […]
[4]
  hepatocyte CLint at 2 µM: 0.15 µL/min/1e6 cells
[5]
  hepatocyte CLint at 2 µM: […]

## OC[C@H]1O[C@@H](Sc2cncc(Br)c2)[C@H](O)[C@@H](n2cc(-c3cc(F)c(Cl)c(F)c3)nn2)[C@H]1O
[2]
  Papp B→A at […], 10 µM: 17 ×10⁻⁶ cm/s
[3]
  logD: > 4
[5]
  hepatocyte CLint at 2 µM: 0.6 µL/min/1e6 cells
[6]
  Drug uptake(free): Active

## OC[C@H]1O[C@@H](Sc2ccc(Cl)c(Cl)c2)[C@H](O)[C@@H](n2cc(-c3cc(F)c(F)c(F)c3)nn2)[C@H]1O
[1]
  Papp A→B at […], 10 µM: […]
[2]
  Papp B→A at […], 10 µM: […]
[3]
  logD: 4.6
[4]
  hepatocyte CLint at 2 µM: 0.7 µL/min/1e6 cells
[5]
  hepatocyte CLint at 2 µM: 0.8 µL/min/1e6 cells
